Source: patent publication US20220112225A1, “ANANDAMIDE COMPOUNDS” (priority 2019, published 2022)

What was measured:
[1] = PO JVC rat terminal PK study at 20 mg/kg (tissue distribution); format: in vivo; details: rat, 20 mg/kg PO; for Brain to Blood Ratio (corrected): corrected for 15 μL of blood per gram of brain tissue
Description: Compound 3 was orally dosed at 20 mg/kg to a group of nine, jugular vein cannulated, individually housed male Sprague Dawley rats that were fasted overnight and fed 4 h post-dose to assess its tissue distribution profile. Dosing was performed with 5 mL/kg dosing volumes with 5% DMSO, 95% water used as a dosing vehicle. Terminal blood samples (>230 μL) were taken from groups of 3 animals at each of 3 time-points post dose (1 h, 2 h, and 4 h) by cardiac puncture under CO2 into heparinised Eppendorf tubes (containing 5 μL heparin) on ice containing an equal quantity of water. Two 100 μL aliquots were then placed in duplicate 96 well plates on dry ice. Immediately after blood sampling, brain and eye pair samples were excised, weighed, rinsed, blotted, and snap frozen in liquid N2. Samples were stored in the freezer at −20° C. until bioanalysis.
Tissue samples were weighed and a volume of water 3 times the mass added to samples before homogenization. In the case of eyeballs the lens could not be homogenized, but all other tissues homogenized. The resulting data (tissue distribution parameters) are shown below in Table 2.

hMfsd2a = molecular target: T1, hMfsd2a (Homo sapiens, UniProt Q8NA29); assay: In vitro Mfsd2a transport, UPLC-MS-MS analysis; format: cell-based; details: transfected HEK293 cells, 50 μM test compound, 1 hour
T1 construct: expressed in transfected cells; host or cells: HEK293
T1 sequence (Q8NA29 1-530 isoform Q8NA29-2): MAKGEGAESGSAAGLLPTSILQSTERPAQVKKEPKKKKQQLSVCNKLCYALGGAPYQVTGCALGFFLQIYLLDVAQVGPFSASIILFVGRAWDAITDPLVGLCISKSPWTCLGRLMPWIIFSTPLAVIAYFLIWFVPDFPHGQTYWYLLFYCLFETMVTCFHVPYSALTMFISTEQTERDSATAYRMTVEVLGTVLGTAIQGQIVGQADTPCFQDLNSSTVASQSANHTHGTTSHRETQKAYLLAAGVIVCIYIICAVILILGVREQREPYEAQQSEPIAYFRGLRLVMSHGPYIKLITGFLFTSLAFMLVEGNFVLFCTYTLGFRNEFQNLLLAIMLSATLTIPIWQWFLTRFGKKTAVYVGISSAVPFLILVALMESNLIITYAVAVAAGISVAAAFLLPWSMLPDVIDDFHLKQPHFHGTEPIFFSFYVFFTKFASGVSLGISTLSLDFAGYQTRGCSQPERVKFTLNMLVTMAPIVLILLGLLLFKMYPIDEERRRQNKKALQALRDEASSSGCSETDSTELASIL
Description: The assay was conducted in a low throughput 6-well format with HEK293 cells prepared and then transfected in duplicate wells with plasmids containing either the wildtype (WT) version of hMfsd2a, the D97A mutant version, or an empty vector as control. Uptake into the ceils was assessed by both thin-layer chromatography (TLC) and ultrahigh performance liquid chromatography hyphenated mass spectrometry.
HEK293 cells were seeded at 6.25×10^5 per 6-well in 2 mL of DMEM with 10% FBS and 1% penicillin-streptomycin (P/S) media (Sigma) and incubated overnight at 37° C. in 5% CO2. Cells were checked for confluency the next morning. On a per well basis the following lipid mix was generated, 6 μL of Lipofectamine 2000 was added dropwise to 200 μL of OptiMEM, this was left to stand for 5 minutes at room temperature (RT). 1 μg of hMfsd2a WT, D97A or empty plasmid was prepared in 200 μL of OptiMEM as appropriate for each well; the Lipofectamine 2000 in OptiMEM solution was then added dropwise to a total volume of 400 μL (this can be scaled to support the number of wells/plates to be assayed). This transfection preparation was then incubated at RT for 20 minutes. DMEM with 10% FBS and no P/S media was warmed to 37° C., the HEK293 plate media was changed and the cells washed carefully with 1 mL of the warmed DMEM with 10% FBS no P/S media, 1.6 mL of the warmed DMEM with 10% FBS no P/S media was then added to each well. 400 μL of the transfection preparation was then added dropwise to each well as appropriate and the plate was gently swirled in a circular motion. The plate was then incubated overnight at 37° C. in 5% CO2.
Compound Incubation and Preparation of Analysis Samples Compound stock solutions were prepared in a 12% BSA in PBS solution such that a 40 μL spike into 2 ml, of plain DMEM would yield a concentration of 50 μM of test compound (the compound treated media). Remaining compound stock solution in 12% BSA in PBS was frozen at −20° C. to allow for media stability testing. The HEK293 6-well plate was removed from the incubator and the wells gently rinsed with 1 mL of plain DMEM that had been prewarmed to 37° C. 2 mL of the compound treated media was then added to each well. A 100 μL sample of the compound treated media was sampled to represent a T=0 h sample; 5 μL of this sample (the remainder was reserved and frozen in case of re-analysis being required) was diluted with 45 μL of DMEM and crashed with 50 μL MeCN in a 96-well plate which was sealed and kept on ice. The HEK293 6-well plate was then incubated at 37° C. in 5% CO2 for 1 hour, the plate was then removed from the incubator and a 100 μL sample of media taken from each well to represent a T=1 h sample; 5 μL of this sample (the remainder was reserved and frozen in case of re-analysis being required) was diluted with 45 μL of DMEM and crashed with 50 μL MeCN into the 96-well plate which was re-sealed and stored at −20° C. The remaining media was then removed from the HEK293 6-well plate, the wells were gently rinsed twice with 1 mL of 0.5% BSA in DMEM, the media was then removed and the 6-well plate allowed to dry completely at RT. 1 ml of 3:2 Hexane:Isopropanol (HIP) was added to each well in a fume cupboard and the plate allowed to stand for 30 minutes at RT without shaking. The HIP solution was then transferred to 2 mL Eppendorf tubes, and the process was repeated with a second 1 mL aliquot of HIP and the two aliquots combined. The HIP samples were then dried down under a nitrogen stream.
HIP samples prepared as described above were reconstituted in 100 μL of MeCN, vortex mixed and inverted multiple times to ensure all surfaces of the Eppendorf tube were rinsed with the MeCN and finally pulse centrifuged. […]

Substance: 2-(5Z,8Z,11Z,14Z)-icosa-5,8,11,14-tetraenamidoethyl (trimethylammonio) ethylphosphate [Compound 3]
- Brain to Blood Ratio (corrected) ([1]; 1 h): 0.25
- Blood ([1]; 1 h post dose): 108.4 ng/mL
- Brain ([1]; 1 h post dose): 28.3 ng/g
- Eye ([1]; 1 h post dose): 1035.4 ng/g
- Brain to Blood Ratio (corrected) ([1]; 2 h): 1.69
- Blood ([1]; 2 h post dose): 16.7 ng/mL
- Brain ([1]; 2 h post dose): 28.5 ng/g
- Eye ([1]; 2 h post dose): 105.0 ng/g
- Brain to Blood Ratio (corrected) ([1]; 4 h): 2.69
- Blood ([1]; 4 h post dose): 12.8 ng/mL
- Brain ([1]; 4 h post dose): 34.6 ng/g
- Eye ([1]; 4 h post dose): 104.4 ng/g
- Transport via Mfsd2a: concentration in HIP samples from WT cells compared with D97A mutant Mfsd2a and/or empty vector cells (hMfsd2a): transported via Mfsd2a
